This is an account of results in patent US8921358B2, “Apoptosis signal-regulating kinase 1 inhibitors” (Takeda Pharmaceutical Company Limited, priority 2008, dated 2014).

One may read the IC50 as the concentration at which inhibition is half-maximal.

Structures can show the parent of a compound that is named as a salt. Bounds are passed on as bounds.

This assay addresses T1, human ASK1 (Homo sapiens, UniProt Q99683).
T1 construct: a 2.2 kb DNA fragment containing an ASK1 gene was recovered from the gel; made in house; host or cells: Sf-21 insect cells, recombinant baculovirus (pFASTBAC1, Bac-to-Bac)
T1 sequence (Q99683 649-1374 limits assumed): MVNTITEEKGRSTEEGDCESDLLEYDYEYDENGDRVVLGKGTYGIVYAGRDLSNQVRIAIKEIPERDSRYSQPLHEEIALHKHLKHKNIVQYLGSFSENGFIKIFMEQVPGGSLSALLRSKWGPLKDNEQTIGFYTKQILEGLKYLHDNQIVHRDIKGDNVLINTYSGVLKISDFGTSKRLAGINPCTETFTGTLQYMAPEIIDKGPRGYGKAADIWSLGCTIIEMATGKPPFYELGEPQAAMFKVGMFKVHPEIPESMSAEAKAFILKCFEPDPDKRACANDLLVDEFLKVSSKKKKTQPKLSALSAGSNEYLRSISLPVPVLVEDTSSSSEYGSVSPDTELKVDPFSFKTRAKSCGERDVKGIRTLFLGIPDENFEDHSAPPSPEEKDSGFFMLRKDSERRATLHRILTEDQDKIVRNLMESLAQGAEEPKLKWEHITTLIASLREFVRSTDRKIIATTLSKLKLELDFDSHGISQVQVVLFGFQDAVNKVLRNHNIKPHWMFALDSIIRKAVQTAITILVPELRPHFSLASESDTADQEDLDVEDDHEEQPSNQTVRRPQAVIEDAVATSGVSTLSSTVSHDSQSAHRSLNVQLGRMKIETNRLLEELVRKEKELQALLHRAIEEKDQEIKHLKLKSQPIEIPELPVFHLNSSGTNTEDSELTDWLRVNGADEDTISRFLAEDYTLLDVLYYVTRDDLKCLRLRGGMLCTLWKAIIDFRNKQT
Put plainly: Scintillation assay measuring inhibition of ASK1 phosphorylation of myelin basic protein. The conditions noted are these: active ASK1 protein 30 ng, myelin basic protein 1 μg, [γ-32P]ATP, room temperature 30 min; values given as ranges; read-out: Enzyme Activity IC50. It counts as biochemical. The protocol:
Cloning of cDNA encoding human ASK1 was conducted by PCR using primers, 5′-[…] AGAGAAGGGGA-3′ (SEQ ID NO: 1) and 5′-[…]-3′ (SEQ ID NO: 2), from human heart cDNA library (Becton, Dickinson and Company). The PCR product was subjected to agarose gel (1%) electrophoresis, a 2.2 kb DNA fragment containing an ASK1 gene was recovered from the gel, and then digested with restriction enzymes, NotI and SalI, and inserted into a plasmid pFASTBAC1 (Invitrogen) to prepare a plasmid pFB-ASK1. The insert was verified by sequencing. Recombinant baculovirus was prepared according to the procedure of the Bac-to-Bac baculovirus expression system (Invitrogen).
Sf-21 cells were seeded to achieve 1×10^6 cells/mL in 100 mL of Sf-900 II SFM medium (Invitrogen) which contains 10% fetal calf serum and then cultured at 27° C. for 24 hrs. To express ASK1 in cells, 0.15 mL of the recombinant baculovirus virus stock was added to cells, and the then cultured for 60 hrs. The cells were separated from the culture solution by centrifugation at 3000 rpm for 10 min and washed once with PBS. The cells were suspended in 10 mL of lysis buffer (25 mM HEPES (pH 7.5), 1% Triton X, 130 mM NaCl, 1 mM EDTA, 1 mM DTT, 25 mM β-glycerophosphate, Protease inhibitor complete (Roche), 1 mM sodium orthovanadate) and ruptured by four times of treatment with a homogenizer (POLYTRON) at 20000 rpm for 30 seconds. Active ASK1 protein was purified from a supernatant obtained by centrifugal separation at 40000 rpm for 45 min using anti-FLAG M2 Affinity Gel (Sigma).
The test compounds (2.5 μl) dissolved in DMSO were added to wells containing 37.5 μl of the reaction solution (25 mM HEPES (pH 7.5), 10 mM magnesium acetate, 1 mM DTT) including 30 ng of active ASK1 protein and 1 μg of myelin basic protein (Wako), and incubated at room temperature for 5 min. To start the reaction, 10 μL of ATP solution (2.5 μM ATP, 0.1 μCi [γ-^32P]ATP) was added to wells. After incubating at room temperature for 30 min, the reaction was terminated by adding 50 μl of 20% TCA solution. The reaction solution was incubated at 4° C. for 30 min and an acid-insoluble fraction was transferred onto a GF/C filter (Packard) with Cell Harvester (Packard), and washed with 250 mM phosphoric acid. After drying at 45° C. for 60 min., 40 μL of Microscint 0 (Packard) was added and the radioactivity was measured with TopCount (Packard). The concentrations (IC50 value) of the test compounds necessary for 50% inhibition of kinase activity were calculated by PRISM 3.0 (Graphpad Software).
The enzyme activities of selected compounds of the present invention against ASK1 were determined using the assay disclosed in Example A and B. The resulted pIC50 values are reported in Table 1.
With `CC(C)(O)c1ccc(C(=O)Nc2cc(N3CCC[C@H](C(N)=O)C3)n3nccc3n2)cc1` [Compound 85, (S)-1-(5-(4-(2-hydroxypropan-2-yl)benzamido)pyrazolo[1,5-a]pyrimidin-7-yl)piperidine-3-carboxamide], the IC50 lay within 100 to 1000 nM.

With `CC(C)(O)c1ccc(C(=O)Nc2cc(N3CCOCC3)n3nccc3n2)cc1` [Compound 72, 4-(2-hydroxypropan-2-yl)-N-(7-morpholinopyrazolo[1,5-a]pyrimidin-5-yl)benzamide], the IC50 is less than 100 nM.

In the case of `CC(C)(O)c1ccc(C(=O)Nc2cc(-c3cccc(CC#N)c3)n3nccc3n2)cc1` [Compound 21, N-(7-(3-(cyanomethyl)phenyl)pyrazolo[1,5-a]pyrimidin-5-yl)-4-(2-hydroxypropan-2-yl)benzamide], the IC50 is 100 to 1000 nM.

In the case of `Cc1cc2nc(NC(=O)[C@@H]3C[C@H]3c3ccccc3)cc(-c3ccccc3)n2n1` [Compound 347, (1R,2R)—N-(2-Methyl-7-phenylpyrazolo[1,5-a]pyrimidin-5-yl)-2-phenylcyclopropanecarboxamide], the IC50 was less than 100 nM.

`CC(C)(O)c1ccc(C(=O)Nc2cc(N3CCC[C@H](C(=O)O)C3)n3nccc3n2)cc1` [Compound 86, (S)-1-(5-(4-(2-hydroxypropan-2-yl)benzamido)pyrazolo[1,5-a]pyrimidin-7-yl)piperidine-3-carboxylic acid]: the IC50 is more than 1000 nM.

For `Cc1cc2nc(NC(=O)c3ccc(C(C)(C)CO)cc3)cc(-c3ccccc3)n2n1` [Compound 29, 4-(1-hydroxy-2-methylpropan-2-yl)-N-(2-methyl-7-phenylpyrazolo[1,5-a]pyrimidin-5-yl)benzamide], the IC50 was less than 100 nM.

`Cc1cc2nc(NC(=O)c3ccc(C(C)(C)CO)cc3)cc(N(C)CCc3ccccc3)n2n1` [Compound 127, 4-(1-hydroxy-2-methylpropan-2-yl)-N-(2-methyl-7-(methyl(phenethyl)amino)pyrazolo[1,5-a]pyrimidin-5-yl)benzamide]: the IC50 is more than 1000 nM.

As for `Cc1cc2nc(NC(=O)c3ccc(C(C)(C)O)nc3)cc(-c3ccccc3)n2n1` [Compound 315, 6-(2-hydroxypropan-2-yl)-N-(2-methyl-7-phenylpyrazolo[1,5-a]pyrimidin-5-yl)nicotinamide], the IC50 was 100 to 1000 nM.

In the case of `CC(C)(C)c1ccc(C(=O)Nc2cc(N3CCCC(O)C3)n3nccc3n2)cc1` (stereo not shown) [Compound 113, 4-tert-butyl-N-(7-(3-hydroxypiperidin-1-yl)pyrazolo[1,5-a]pyrimidin-5-yl)benzamide], the half-maximal inhibitory concentration (IC50) is less than 100 nM.

For the molecule `CC(C)(C)c1ccc(C(=O)Nc2cc(N3CCC(O)CC3)n3nccc3n2)cc1` [Compound 112, 4-tert-butyl-N-(7-(4-hydroxypiperidin-1-yl)pyrazolo[1,5-a]pyrimidin-5-yl)benzamide], the IC50 is less than 100 nM.

Consider `Nc1cc(-c2cccc(CO)c2)n2nccc2n1` [Compound 178, (3-(5-aminopyrazolo[1,5-a]pyrimidin-7-yl)phenyl)methanol], for which the IC50 was more than 1000 nM.

On to `Cc1cc2nc(NC(=O)c3ccc(C(C)(C)O)cc3)cc(-c3ccccc3)n2n1` [Compound 202, 4-(2-hydroxypropan-2-yl)-N-(2-methyl-7-phenylpyrazolo[1,5-a]pyrimidin-5-yl)benzamide], for which the IC50 is less than 100 nM.

As to `CN(C)c1cc(NC(=O)c2ccc(C(C)(C)C)cc2)nc2ccnn12` [Compound 125, 4-tert-butyl-N-(7-(dimethylamino)pyrazolo[1,5-a]pyrimidin-5-yl)benzamide], the IC50 is less than 100 nM.

`CC(C)(O)c1ccc(C(=O)Nc2cc(N3CCc4[nH]ncc4C3)n3nccc3n2)cc1` [Compound 79, N-(7-(6,7-dihydro-1H-pyrazolo[4,3-c]pyridin-5(4H)-yl)pyrazolo[1,5-a]pyrimidin-5-yl)-4-(2-hydroxypropan-2-yl)benzamide]: the IC50 lay within 100 to 1000 nM.

Take `CC(C)(O)c1ccc(C(=O)Nc2cc(N3CCC[C@@H](O)C3)n3nccc3n2)cc1` [Compound 76, (R)—N-(7-(3-hydroxypiperidin-1-yl)pyrazolo[1,5-a]pyrimidin-5-yl)-4-(2-hydroxypropan-2-yl)benzamide]: the 50% inhibitory concentration (IC50) was in the range of 100 to 1000 nM.

As for `COc1ccc(-c2cc(NC(=O)c3ccc(C(C)(C)O)nc3)nc3cc(C)nn23)cc1` [Compound 338, 6-(2-hydroxypropan-2-yl)-N-(7-(4-methoxyphenyl)-2-methylpyrazolo[1,5-a]pyrimidin-5-yl)nicotinamide, trifluoroacetate salt], the IC50 is less than 100 nM.

Regarding `CC(=O)c1cccc(-c2cc(NC(=O)c3ccc(C(C)(C)C)cc3)nc3ccnn23)c1` [Compound 12, N-(7-(3-Acetylphenyl)pyrazolo[1,5-a]pyrimidin-5-yl)-4-tert-butylbenzamide], the IC50 is more than 1000 nM.

Consider `CC(C)(C)c1ccc(C(=O)Nc2cc(-c3cccc(CO)c3)n3nccc3n2)cc1` [Compound 5, 4-tert-butyl-N-(7-(3-(hydroxymethyl)phenyl)pyrazolo[1,5-a]pyrimidin-5-yl)benzamide], for which the 50% inhibitory concentration (IC50) was less than 100 nM.

For the molecule `CC(C)(O)c1ccc(C(=O)Nc2cc(N3CCn4cnnc4C3)n3nccc3n2)cc1` [Compound 91, N-(7-(5,6-dihydro-[1,2,4]triazolo[4,3-a]pyrazin-7(8H)-yl)pyrazolo[1,5-a]pyrimidin-5-yl)-4-(2-hydroxypropan-2-yl)benzamide], the IC50 was more than 1000 nM.

For `COc1ccc(-c2cc(NC(=O)c3ccc(C(C)(C)O)cc3)nc3ccnn23)cc1` [Compound 19, 4-(2-Hydroxypropan-2-yl)-N-(7-(4-methoxyphenyl)pyrazolo[1,5-a]pyrimidin-5-yl)benzamide], the IC50 is less than 100 nM.

Regarding `CC(C)(O)c1ccc(C(=O)Nc2cc(N3CCc4ccccc4C3)n3nccc3n2)cc1` [Compound 64, N-(7-(3,4-dihydroisoquinolin-2(1H)-yl)pyrazolo[1,5-a]pyrimidin-5-yl)-4-(2-hydroxypropan-2-yl)benzamide], the 50% inhibitory concentration (IC50) was less than 100 nM.

As for `CC(C)(O)c1ccc(C(=O)Nc2cc(-c3cccc(NS(C)(=O)=O)c3)n3nccc3n2)cc1` [Compound 17, 4-(2-Hydroxypropan-2-yl)-N-(7-(3-(methylsulfonamido)phenyl)pyrazolo[1,5-a]pyrimidin-5-yl)benzamide], the IC50 is 100 to 1000 nM.

As for `CC(C)(O)c1ccc(C(=O)Nc2cc(-c3ccccc3)n3nccc3n2)cc1` [Compound 16, 4-(2-Hydroxypropan-2-yl)-N-(7-phenylpyrazolo[1,5-a]pyrimidin-5-yl)benzamide], the IC50 is less than 100 nM.

For the molecule `CC(C)(O)c1ccc(C(=O)Nc2cc(N3CCN(S(C)(=O)=O)CC3)n3nccc3n2)cc1` [Compound 90, 4-(2-hydroxypropan-2-yl)-N-(7-(4-(methylsulfonyl)piperazin-1-yl)pyrazolo[1,5-a]pyrimidin-5-yl)benzamide], the IC50 was 100 to 1000 nM.

As to `CC(C)(C)c1ccc(C(=O)Nc2cc(N3CCC[C@@H](O)C3)n3nccc3n2)cc1` [Compound 77, (R)-4-tert-butyl-N-(7-(3-hydroxypiperidin-1-yl)pyrazolo[1,5-a]pyrimidin-5-yl)benzamide], the 50% inhibitory concentration (IC50) is less than 100 nM.
